For one data set, the target named is T1, estrogen receptor (Rattus norvegicus, UniProt P06211).
T1 construct: from tissue; host or cells: uterus of matured female rat, homogenate supernatant (105,000 x G)
T1 sequence (P06211 1-600): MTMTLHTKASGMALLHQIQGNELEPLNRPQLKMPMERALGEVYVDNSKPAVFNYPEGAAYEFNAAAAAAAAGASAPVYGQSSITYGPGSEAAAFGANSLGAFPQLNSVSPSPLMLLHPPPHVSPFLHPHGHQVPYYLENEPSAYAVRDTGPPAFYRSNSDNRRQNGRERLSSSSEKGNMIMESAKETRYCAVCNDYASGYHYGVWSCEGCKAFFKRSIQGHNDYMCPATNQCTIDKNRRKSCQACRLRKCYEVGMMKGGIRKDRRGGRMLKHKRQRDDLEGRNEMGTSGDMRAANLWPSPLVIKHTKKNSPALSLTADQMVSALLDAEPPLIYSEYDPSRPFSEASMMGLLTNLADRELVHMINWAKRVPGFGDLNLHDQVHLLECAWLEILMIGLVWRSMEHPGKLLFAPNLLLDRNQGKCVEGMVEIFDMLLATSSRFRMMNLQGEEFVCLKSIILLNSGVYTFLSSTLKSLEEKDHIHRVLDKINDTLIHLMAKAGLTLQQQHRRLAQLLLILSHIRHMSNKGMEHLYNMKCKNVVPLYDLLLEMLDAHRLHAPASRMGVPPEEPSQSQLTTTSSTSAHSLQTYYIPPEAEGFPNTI
Kind of data set: estrogen receptor affinity by exchange curve method ([3H]-estradiol displacement, membrane specimen from rat uterus). The format is binding. The note with it: concentration necessary to exchange 50% of estrogen bound receptor. The source says: The smaller the numeral value, the higher is affinity between a chemical substance and estrogen receptor, i.e., the higher is so-called endocrine disruptor. […]
Appendix J and "Medication receptor" P33-34, edited by Kazunari Takayanagi, Nanzando in Japan.
Firstly, a matured female rat was butchered and then its uterus was taken out. Then, fatty portions adhered to tissue portion of the uterus were removed and the uterus removed fatty portions was weighed and then placed in ice. The tissue was sliced so as to form a corner of 1 to 2 mm and. The sliced tissue was put in a Polytron homogenizer cooled in advance in ice and ice cooled TEDG buffer solution (10 mM tris·HCl((pH 7.6), 1.5 mM EDTA, 1 mM DTT and 10 % Glycerol) of 1.0 ml per 50 mg of tissue was added therein and homogenized for 5 seconds. The homogenate was put in a centrifugal tube cooled in advance and centrifuged for 60 minutes at 105,000×G(gravitational unit), whereby a supernatant liquid was obtained as a membrane specimen containing estrogen receptor.
Each the reaction solution thus prepared was vacuum dried and then placed in ice.
1 ml of the above-prepared supernatant liquid of homoginate containing estrogen receptor was added to each tube and softly stirred and then each tube was capped to incubate at 4 °C for 20 hours. Each mixed solution was poured on a filter attached a glass filter paper and aspiration filtered and then the glass filter paper was rinsed with an ice cooled rinsing buffer solution (50 mM Tris·HCl (pH7.6)). Each the glass filter paper was dried and then each radioactivity was measured with a liquid scintillation counter.

In a further data set the test system is pregnant mice. To be noted: 2 and 20 µg/kg/day dosed orally to pregnant mice; cited from earlier work.
The conditions of data set [1]: stipulated by the U. S. Environmental Protection Agency and the Japanese Ministry of Health and Welfare; cited from earlier work.
Another data set concerns rat. The note with it: cited from earlier work.
[2] abbreviates: IC50, evaluated sample itself (bisphenols, phenols).
[3] abbreviates: evaluated sample itself (bisphenols, phenols), read-out: IC50 (converted).

Where two headings read alike, the source gives them in different places.

Turning to `Cc1cc(C2(c3ccc(O)c(C)c3)c3ccccc3-c3ccccc32)ccc1O` [BCFL, 9,9-bis(3-methyl-4-hydroxyphenyl) fluorene], the IC50 on estrogen receptor (setting [2]) was > 264 µM.
With `CC(C)(c1ccc(O)cc1)c1ccc(O)cc1` [BPA, 2,2-bis(4-hydroxyphenyl) propane], in the data set with pregnant mice, the “efficiency of sperm production in male offspring” value was “decrease in the efficiency of sperm production” and the “prostate weights in male offspring” value is recorded as “increase in prostate weights”. For the same molecule, the acceptabel daily intake in data set [1] is listed as 50 µg/kg/day. For the same molecule, the “dosage by which the action like the female hormone was developed” value in the data set with rat is 800 mg/kg/day. The concentration for half-maximal inhibition (IC50) on estrogen receptor (setting [3]) is 32 µM.
Consider `Oc1ccc(C(c2ccc(O)cc2)(C(F)(F)F)C(F)(F)F)cc1` [BPAF, 2,2-bis(4-hydroxyphenyl) hexafluoropropane], for which the IC50 at estrogen receptor (setting [3]) is < 0.297 µM.
Same read-out and setting: the same measure for `CC(c1ccccc1)(c1ccc(O)cc1)c1ccc(O)cc1` [BPAP, 1,1-bis(4-hydroxyphenyl)-1-phenylethane]: 1.72 µM.
Molecule `Oc1ccc(C(c2ccccc2)(c2ccccc2)c2ccc(O)cc2)cc1` [BPBP, bis(4-hydroxyphenyl)diphenyl methane] showed an IC50 on estrogen receptor (setting [2]) of 6.53 µM.
As to `Oc1ccc(Cc2ccc(O)cc2)cc1` [BPF, bis(4-hydroxyphenyl)methane], the IC50 on estrogen receptor (setting [3]) was 6.99 µM.
Same read-out and setting: in the case of `Oc1ccc(C2(c3ccc(O)cc3)c3ccccc3-c3ccccc32)cc1` [BPFL, 9,9-bis(4-hydroxyphenyl) fluorene] it was < 8.85 µM.
`CC(C)(c1ccc(O)cc1)c1cccc(C(C)(C)c2ccc(O)cc2)c1` [BPM, 4,4'-[1,3-phenylenebis(1-methylethylidene)] bisphenol]: the IC50 on estrogen receptor (setting [2]) was < 0.289 µM.
On the same count and under the same terms, in the case of `Oc1ccc(C2(c3ccc(O)cc3)CCCCC2)cc1` [BPZ, 1,1-bis(4-hydroxyphenyl) cyclohexane] it was < 0.373 µM.
As to `Cc1cc(C2(c3cc(C)c(O)c(C)c3)c3ccccc3-c3ccccc32)cc(C)c1O` [BXFL, 9,9-bis(4-hydroxy-3,5-dimethylphenyl) fluorene], the IC50 on estrogen receptor (setting [3]) is < 4.18 µM.
Consider `CCCCCCCCCc1ccc(O)cc1` [NP, 4-nonylphenol], for which, at estrogen receptor (setting [2]), the IC50 is 4.08 µM.
The same measure, in the same setting: in the case of `C=C(CC(C)(C)c1ccc(O)cc1)c1ccc(O)cc1` [PIPLD, 4-methyl-2,4-bis(4-hydroxyphenyl)-1-pentene] it was < 0.373 µM.
With `CC1(C)CC2(CC(C)(C)c3ccc(O)cc32)c2cc(O)ccc21` [SPI, 6,6'-dihydroxy-3,3,3',3'-tetramethyl-1, 1'-spiro biindan], at estrogen receptor (setting [3]), the IC50 is 2.92 µM.
For `Oc1ccc(Sc2ccc(O)cc2)cc1` [TDP, bis(4-hydroxyphenyl) sulfide], the IC50 on estrogen receptor (setting [3]) was < 0.458 µM.
Regarding `CC1CC(C)(C)CC(c2ccc(O)cc2)(c2ccc(O)cc2)C1` (centres unmarked) [TMBPZ, 3,3,5-trimethyl-1,1-bis(4-hydroxyphenyl)cyclohexane], the IC50 on estrogen receptor (setting [2]) is < 0.322 µM.
At estrogen receptor (setting [2]), `CC(C)(C)c1ccc(O)cc1` [p-t-butyl phenol] gave an IC50 of 173 µM.

By IC50 is commonly meant the concentration that gives 50% inhibition.

The record behind these values is patent EP1097956A1, “Low endocrine disruptor polycarbonate resin” (Mitsubishi Gas Chemical Company, Inc., priority 1999, dated 2001).
